Values of other authors in PMC5560747, “Computational-experimental approach to drug-target interaction mapping: A case study on kinase inhibitors” (PLoS Computational Biology, 2017).

Assays:
Design in all cases: method as in Gao et al. [42]
Conditions in all cases: ref Gao et al. [42], cited from earlier work
[1] = system: STK24
[2] = system: PIM2
[3] = system: MAPK13
[4] = system: CAMK2g
[5] = system: MARK2
[6] = target: T1, Aurora A (Homo sapiens, UniProt O14965)
T1 construct: purchased SignalChem A28-18G-10
T1 sequence (O14965 1-403): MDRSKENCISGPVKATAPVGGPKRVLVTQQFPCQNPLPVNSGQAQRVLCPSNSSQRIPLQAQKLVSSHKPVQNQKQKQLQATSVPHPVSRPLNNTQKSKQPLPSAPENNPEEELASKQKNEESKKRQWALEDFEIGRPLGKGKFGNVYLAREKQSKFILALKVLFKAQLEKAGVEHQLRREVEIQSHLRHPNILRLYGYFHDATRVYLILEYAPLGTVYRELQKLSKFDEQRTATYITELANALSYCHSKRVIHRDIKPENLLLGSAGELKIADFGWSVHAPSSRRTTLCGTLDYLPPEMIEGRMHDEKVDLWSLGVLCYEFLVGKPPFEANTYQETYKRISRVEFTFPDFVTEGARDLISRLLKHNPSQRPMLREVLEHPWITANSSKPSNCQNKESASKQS

[7] = system: EPHA2
[8] = system: CHK2
[9] = system: TRKB
[10] = system: PDK1
[11] = system: CLK2
[12] = system: MAP4K2
[13] = system: TYRO3
[14] = system: BLK
[15] = system: PRKX
[16] = system: CSNK1D
[17] = target: FLT4 (Homo sapiens, UniProt P35916)
Sequence of FLT4 (P35916 25-1363): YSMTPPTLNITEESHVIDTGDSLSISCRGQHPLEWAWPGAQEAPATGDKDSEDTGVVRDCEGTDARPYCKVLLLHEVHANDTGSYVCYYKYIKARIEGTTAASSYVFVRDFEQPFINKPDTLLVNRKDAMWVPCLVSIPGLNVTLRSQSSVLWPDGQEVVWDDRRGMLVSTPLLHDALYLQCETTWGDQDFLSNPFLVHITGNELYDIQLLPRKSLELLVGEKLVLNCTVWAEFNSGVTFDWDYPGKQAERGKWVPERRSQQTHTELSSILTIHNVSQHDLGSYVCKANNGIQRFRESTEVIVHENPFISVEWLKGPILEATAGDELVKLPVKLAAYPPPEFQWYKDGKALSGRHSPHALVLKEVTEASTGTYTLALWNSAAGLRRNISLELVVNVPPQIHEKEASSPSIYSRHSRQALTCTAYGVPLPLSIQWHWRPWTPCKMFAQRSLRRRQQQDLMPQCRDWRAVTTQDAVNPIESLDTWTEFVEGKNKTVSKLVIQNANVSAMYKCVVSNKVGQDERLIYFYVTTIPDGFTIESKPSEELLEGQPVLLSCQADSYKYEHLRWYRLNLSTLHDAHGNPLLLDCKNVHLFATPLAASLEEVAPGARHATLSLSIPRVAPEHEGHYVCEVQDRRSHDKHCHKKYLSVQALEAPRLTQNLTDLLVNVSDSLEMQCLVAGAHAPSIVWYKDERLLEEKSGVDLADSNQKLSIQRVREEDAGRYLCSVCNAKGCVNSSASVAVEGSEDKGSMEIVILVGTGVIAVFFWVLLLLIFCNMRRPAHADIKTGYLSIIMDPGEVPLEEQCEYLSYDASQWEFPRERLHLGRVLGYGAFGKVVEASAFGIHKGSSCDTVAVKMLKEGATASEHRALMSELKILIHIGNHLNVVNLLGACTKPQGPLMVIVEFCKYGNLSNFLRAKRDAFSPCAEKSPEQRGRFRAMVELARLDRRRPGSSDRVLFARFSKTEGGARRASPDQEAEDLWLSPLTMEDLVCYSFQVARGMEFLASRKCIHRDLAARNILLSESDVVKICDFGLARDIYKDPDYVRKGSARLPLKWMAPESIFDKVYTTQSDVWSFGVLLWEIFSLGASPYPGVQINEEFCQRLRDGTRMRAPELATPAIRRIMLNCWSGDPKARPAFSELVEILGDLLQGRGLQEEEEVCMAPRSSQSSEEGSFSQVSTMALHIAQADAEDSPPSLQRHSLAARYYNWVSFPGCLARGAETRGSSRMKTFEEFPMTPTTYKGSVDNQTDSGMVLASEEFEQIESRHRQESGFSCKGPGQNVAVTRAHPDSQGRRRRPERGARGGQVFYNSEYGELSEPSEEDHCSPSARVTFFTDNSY

[18] = target: TRKA (Homo sapiens, UniProt P04629)
Sequence of TRKA (P04629 33-796): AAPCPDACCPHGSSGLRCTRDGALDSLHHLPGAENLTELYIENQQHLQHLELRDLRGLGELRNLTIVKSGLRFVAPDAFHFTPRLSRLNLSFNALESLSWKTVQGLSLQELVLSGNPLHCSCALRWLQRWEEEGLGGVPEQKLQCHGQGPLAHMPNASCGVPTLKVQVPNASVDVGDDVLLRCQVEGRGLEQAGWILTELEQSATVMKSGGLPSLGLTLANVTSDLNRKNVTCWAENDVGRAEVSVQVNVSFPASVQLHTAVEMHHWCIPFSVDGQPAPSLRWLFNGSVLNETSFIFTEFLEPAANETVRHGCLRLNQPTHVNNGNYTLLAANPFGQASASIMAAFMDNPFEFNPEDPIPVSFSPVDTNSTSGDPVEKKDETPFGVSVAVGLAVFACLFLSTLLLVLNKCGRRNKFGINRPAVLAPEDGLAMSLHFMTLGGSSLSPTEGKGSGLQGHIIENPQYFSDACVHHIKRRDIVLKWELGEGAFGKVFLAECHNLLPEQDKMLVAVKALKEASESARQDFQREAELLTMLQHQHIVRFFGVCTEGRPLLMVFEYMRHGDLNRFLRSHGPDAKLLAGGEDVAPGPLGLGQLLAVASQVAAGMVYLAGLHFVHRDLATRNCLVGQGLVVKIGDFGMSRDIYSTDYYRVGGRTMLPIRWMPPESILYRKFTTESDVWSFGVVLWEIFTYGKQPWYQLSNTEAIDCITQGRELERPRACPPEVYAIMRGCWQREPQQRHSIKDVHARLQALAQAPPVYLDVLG

[19] = target: LYN B (Homo sapiens, UniProt P07948)
Sequence of LYN B (P07948 1-491 isoform P07948-2): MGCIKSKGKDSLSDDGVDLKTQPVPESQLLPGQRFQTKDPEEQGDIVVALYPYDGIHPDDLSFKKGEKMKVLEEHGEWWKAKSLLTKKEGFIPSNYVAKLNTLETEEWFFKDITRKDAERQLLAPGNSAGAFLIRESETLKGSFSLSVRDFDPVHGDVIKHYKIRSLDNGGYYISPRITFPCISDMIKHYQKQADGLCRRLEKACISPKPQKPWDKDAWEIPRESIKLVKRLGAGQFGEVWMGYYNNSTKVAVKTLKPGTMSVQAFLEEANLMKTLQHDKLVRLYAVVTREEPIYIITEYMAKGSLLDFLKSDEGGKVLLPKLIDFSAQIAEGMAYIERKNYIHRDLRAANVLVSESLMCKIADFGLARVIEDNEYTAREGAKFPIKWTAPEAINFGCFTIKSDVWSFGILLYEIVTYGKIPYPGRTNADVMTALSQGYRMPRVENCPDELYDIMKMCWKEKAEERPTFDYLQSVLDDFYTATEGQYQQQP

[20] = system: ERK2
[21] = target: FYN A (Homo sapiens, UniProt P06241)
Sequence of FYN A (P06241 whole entry): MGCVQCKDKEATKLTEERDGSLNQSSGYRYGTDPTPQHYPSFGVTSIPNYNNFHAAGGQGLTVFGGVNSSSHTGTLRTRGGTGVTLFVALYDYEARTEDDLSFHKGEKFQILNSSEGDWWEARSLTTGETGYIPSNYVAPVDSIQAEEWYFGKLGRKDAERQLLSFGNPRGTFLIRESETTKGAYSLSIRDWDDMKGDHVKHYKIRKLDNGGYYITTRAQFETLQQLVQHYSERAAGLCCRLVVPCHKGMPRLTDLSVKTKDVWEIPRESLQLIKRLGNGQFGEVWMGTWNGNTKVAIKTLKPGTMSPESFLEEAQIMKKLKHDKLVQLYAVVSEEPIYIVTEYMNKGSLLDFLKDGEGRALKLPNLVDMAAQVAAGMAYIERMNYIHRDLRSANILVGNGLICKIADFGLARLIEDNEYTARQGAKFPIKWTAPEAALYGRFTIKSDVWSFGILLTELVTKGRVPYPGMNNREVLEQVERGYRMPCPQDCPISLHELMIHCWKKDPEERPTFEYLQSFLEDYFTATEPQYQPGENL

[22] = system: CDC42BPA
[23] = system: CSNK1G2
[24] = system: FGFR3
[25] = target: BRK (Homo sapiens, UniProt Q13882)
Sequence of BRK (Q13882 whole entry): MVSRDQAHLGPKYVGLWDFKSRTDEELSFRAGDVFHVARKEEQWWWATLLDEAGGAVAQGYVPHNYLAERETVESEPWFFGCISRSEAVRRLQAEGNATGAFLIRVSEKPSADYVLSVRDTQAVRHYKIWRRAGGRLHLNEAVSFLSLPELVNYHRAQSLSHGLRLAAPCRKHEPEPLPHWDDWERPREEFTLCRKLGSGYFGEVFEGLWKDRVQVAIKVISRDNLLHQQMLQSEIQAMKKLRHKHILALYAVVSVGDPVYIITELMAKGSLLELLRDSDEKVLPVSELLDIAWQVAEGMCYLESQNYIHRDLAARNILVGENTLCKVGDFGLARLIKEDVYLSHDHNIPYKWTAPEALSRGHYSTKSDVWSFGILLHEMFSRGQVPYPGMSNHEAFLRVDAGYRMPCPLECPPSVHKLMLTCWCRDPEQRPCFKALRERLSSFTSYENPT

[26] = system: DAPK3
[27] = system: PRKD2
[28] = system: PIM3
[29] = system: PKCg

COc1cc2nccc(Oc3ccc(NC(=O)Nc4cc(C)on4)c(Cl)c3)c2cc1OC [TIVOZANIB, Tivozanib]
Gao et al. % of activity remaining at 1 µM ([1]; 1 µM): 118%
Gao et al. % of activity remaining at 10 µM ([1]; 10 µM): 78%
Gao et al. % of activity remaining at 1 µM ([2]; 1 µM): 114%
Gao et al. % of activity remaining at 10 µM ([2]; 10 µM): 103%
Gao et al. % of activity remaining at 1 µM ([3]; 1 µM): 114%
Gao et al. % of activity remaining at 10 µM ([3]; 10 µM): 97%
Gao et al. % of activity remaining at 1 µM ([4]; 1 µM): 108%
Gao et al. % of activity remaining at 10 µM ([4]; 10 µM): 70%
Gao et al. % of activity remaining at 1 µM ([5]; 1 µM): 98%
Gao et al. % of activity remaining at 10 µM ([5]; 10 µM): 106%
Gao et al. % of activity remaining at 1 µM ([6]; 1 µM): 7%
Gao et al. % of activity remaining at 10 µM ([6]; 10 µM): 7%
Gao et al. % of activity remaining at 1 µM ([7]; 1 µM): -3%
Gao et al. % of activity remaining at 10 µM ([7]; 10 µM): -3%
Gao et al. % of activity remaining at 1 µM ([8]; 1 µM): 79%
Gao et al. % of activity remaining at 10 µM ([8]; 10 µM): 30%
Gao et al. % of activity remaining at 1 µM ([9]; 1 µM): 42%
Gao et al. % of activity remaining at 10 µM ([9]; 10 µM): -10%
Gao et al. % of activity remaining at 1 µM ([10]; 1 µM): 110%
Gao et al. % of activity remaining at 10 µM ([10]; 10 µM): 116%
Gao et al. % of activity remaining at 1 µM ([11]; 1 µM): 114%
Gao et al. % of activity remaining at 10 µM ([11]; 10 µM): 99%
Gao et al. % of activity remaining at 1 µM ([12]; 1 µM): 47%
Gao et al. % of activity remaining at 10 µM ([12]; 10 µM): 17%
Gao et al. % of activity remaining at 1 µM ([13]; 1 µM): 10%
Gao et al. % of activity remaining at 10 µM ([13]; 10 µM): 8%
Gao et al. % of activity remaining at 1 µM ([14]; 1 µM): 2%
Gao et al. % of activity remaining at 10 µM ([14]; 10 µM): 0%
Gao et al. % of activity remaining at 1 µM ([15]; 1 µM): 97%
Gao et al. % of activity remaining at 10 µM ([15]; 10 µM): 59%
Gao et al. % of activity remaining at 1 µM ([16]; 1 µM): 85%
Gao et al. % of activity remaining at 10 µM ([16]; 10 µM): 61%
Gao et al. % of activity remaining at 1 µM ([17]; 1 µM): -1%
Gao et al. % of activity remaining at 10 µM ([17]; 10 µM): -1%
Gao et al. % of activity remaining at 1 µM ([18]; 1 µM): 2%
Gao et al. % of activity remaining at 10 µM ([18]; 10 µM): 0%
Gao et al. % of activity remaining at 1 µM ([19]; 1 µM): -1%
Gao et al. % of activity remaining at 10 µM ([19]; 10 µM): 2%
Gao et al. % of activity remaining at 1 µM ([20]; 1 µM): 103%
Gao et al. % of activity remaining at 10 µM ([20]; 10 µM): 104%
Gao et al. % of activity remaining at 1 µM ([21]; 1 µM): 5%
Gao et al. % of activity remaining at 10 µM ([21]; 10 µM): 1%
Gao et al. % of activity remaining at 1 µM ([22]; 1 µM): 116%
Gao et al. % of activity remaining at 10 µM ([22]; 10 µM): 102%
Gao et al. % of activity remaining at 1 µM ([23]; 1 µM): 80%
Gao et al. % of activity remaining at 10 µM ([23]; 10 µM): 73%
Gao et al. % of activity remaining at 1 µM ([24]; 1 µM): 59%
Gao et al. % of activity remaining at 10 µM ([24]; 10 µM): 28%
Gao et al. % of activity remaining at 1 µM ([25]; 1 µM): 2%
Gao et al. % of activity remaining at 10 µM ([25]; 10 µM): -1%
Gao et al. % of activity remaining at 1 µM ([26]; 1 µM): 82%
Gao et al. % of activity remaining at 10 µM ([26]; 10 µM): 90%
Gao et al. % of activity remaining at 1 µM ([27]; 1 µM): 95%
Gao et al. % of activity remaining at 10 µM ([27]; 10 µM): 103%
Gao et al. % of activity remaining at 1 µM ([28]; 1 µM): 107%
Gao et al. % of activity remaining at 10 µM ([28]; 10 µM): 105%
Gao et al. % of activity remaining at 1 µM ([29]; 1 µM): 109%
Gao et al. % of activity remaining at 10 µM ([29]; 10 µM): 110%
